Data set [1] in a line: Conventional dosage form LPV/RTV, oral administration, non-human primates (Example 4). To be noted: non-human primates vs humans. Type of data set: in vivo. An excerpt: AUC (area under the curve, or total drug exposure) of the active drug lopinavir was dose normalized across species and route of administration by dividing the total exposure by the dose administered (μg*hr*kg/(mL*mg)). Dashes represent unreported data. Apparent half-life is reported in hours.

The conditions of data set [2]: Human, IV; cited from earlier work.
The conditions of data set [3]: Non-human Primates, SC; cited from earlier work.

Like-named read-outs stand apart in the source and are kept apart here.

Regarding `Cc1cccc(C)c1OCC(=O)N[C@@H](Cc1ccccc1)[C@@H](O)C[C@H](Cc1ccccc1)NC(=O)[C@H](C(C)C)N1CCCNC1=O` [lopinavir], the “total AUC of lopinavir (PO) in non-human primates, fold lower than humans” value in data set [1] came to 10 fold.
In the case of `C[C@H](Cn1cnc2c(N)ncnc21)OCP(=O)(O)O` [TFV, tenofovir], in data set [2], the “AUC (dose normalized)” value is 5.6 µg·kg·h/mL/mg and the “T1/2, app” value is 6.6 h. Besides, in data set [3], the “AUC (dose normalized)” value is 2.1 µg·kg·h/mL/mg and the “T1/2, app” value was 8 h.

The values above are taken from patent US20220096503A1, “COMBINATION PHARMACEUTICAL COMPOSITIONS AND METHODS THEREOF” (University of Washington, priority 2019, published 2022).
